Laboratory results taken from US8735398B2 (Bristol-Myers Squibb Company, priority 2009, dated 2014).
pEC50: −log10 of the molar value. Where two headings read alike, the source gives them in different places.

System: HCV 1b genotype
Experiment: HCV replicon assay (HCV-neo replicon cells, wild-type)
Type: cell-based, Hepatitis C virus
Conditions: HCV 1b genotype replicon
Procedure: An HCV Replicon assay was utilized in the present disclosure, and was prepared, conducted and validated as described in commonly owned PCT/US2006/022197 and in O'Boyle et al., Antimicrob. Agents Chemother, 49(4):1346-1353 (April 2005). Assay methods incorporating luciferase reporters have also been used as described (Apath.com).
HCV-neo replicon cells and replicon cells containing resistance substitutions in the NS5A region were used to test the currently described family of compounds.
The compounds were determined to have differing degrees of reduced inhibitory activity on cells containing mutations vs. the corresponding inhibitory potency against wild-type cells. Thus, the compounds of the present disclosure can be effective in inhibiting the function of the HCV NS5A protein and are understood to be as effective in combinations as previously described in application PCT/US2006/022197 and commonly owned WO 04/014852. It should be understood that the compounds of the present disclosure can inhibit multiple genotypes of HCV. […] In one embodiment, compounds of the present disclosure are inhibitory versus 1a, 1b, 2a, 2b, 3a, 4a, and 5a genotypes.

[1] = class symbol, read-out: EC50 Range against HCV 1b
[2] = Hepatitis C virus, class symbols, read-out: EC50 Range against HCV 1b
[3] = Hepatitis C virus, class symbol, read-out: EC50 Range against HCV 1b
[4] = Hepatitis C virus, read-out: EC50 1b

`C[C@H](NC(=O)[C@](C)(O)c1ccccc1)C(=O)Nc1ccc(-c2cnc(-c3ccc(NC(=O)[C@H](C)NC(=O)[C@](C)(O)c4ccccc4)cc3)o2)cc1` [OL-57] was tested, and the pEC50 [1] was 7.00 to 8.34.

In the case of `CCc1ccccc1C(=O)N1C[C@H](OC(C)(C)C)C[C@H]1C(=O)Nc1ccc(-c2cnc(-c3ccc(NC(=O)[C@@H]4C[C@@H](OC(C)(C)C)CN4C(=O)c4ccccc4CC)cc3)o2)cc1` [XY-65, (2S,4R,2′S,4′R)-N,N′-(1,3-oxazole-2,5-diyldi-4,1-phenylene)bis(4-tert-butoxy-1-(2-ethylbenzoyl)-2-pyrrolidinecarboxamide)], the pEC50 [2] was 5.00 to 6.00.

`CCc1ccccc1C(=O)N1CCC[C@H]1C(=O)Nc1ccc(-c2nnc(-c3ccc(NC(=O)[C@@H]4CCCN4C(=O)c4ccccc4CC)cc3)o2)cc1` [RK-9, (2S,2′S)-N,N′-(1,3,4-oxadiazole-2,5-diyldi-4,1-phenylene)bis(1-(2-ethylbenzoyl)-2-pyrrolidinecarboxamide)] showed a pEC50 [3] of 6.00 to 7.00.

With `O=C(Nc1ccc(-c2cnc(-c3ccc(NC(=O)[C@@H]4CCCN4C(=O)C(O)c4cccnc4)cc3)o2)cc1)[C@@H]1CCCN1C(=O)C(O)c1cccnc1` (stereo partly drawn) [JR-7, (2S,2′S)-N,N′-(2,5-oxazolediyldi-4,1-phenylene)bis[1-(hydroxy-3-pyridinylacetyl)-2-pyrrolidinecarboxamide]] the pEC50 [2] was 7.00 to 8.34.

With `C[C@H](NC(=O)c1nc(Cl)cc2ccccc12)C(=O)Nc1ccc(-c2cc(-c3ccc(NC(=O)[C@H](C)NC(=O)c4nc(Cl)cc5ccccc45)cc3)[nH]n2)cc1` [OL-48, N,N′-(1H-pyrazole-3,5-diylbis(4,1-phenyleneimino((2S)-1-oxo-1,2-propanediyl)))bis(3-chloro-1-isoquinolinecarboxamide)] the pEC50 [3] was 6.00 to 7.00 and the pEC50 [4] was 6.55.

`COc1cc(C(=O)N2CCC[C@H](C(=O)Nc3ccc(-c4nnc(-c5ccc(NC(=O)[C@H]6CCCN(C(=O)c7cc(OC)c8ccccc8n7)C6)cc5)o4)cc3)C2)nc2ccccc12` [RK-26, (3S,3′S)-N,N′-(1,3,4-oxadiazole-2,5-diyldi-4,1-phenylene)bis(1-((4-methoxy-2-quinolinyl)carbonyl)-3-piperidinecarboxamide)] gave a pEC50 [3] of 5.00 to 6.00.

`O=C(Nc1ccc(-c2cnc(-c3ccc(NC(=O)[C@@H]4CCCN4C(=O)CN4C(=O)OC[C@@H]4c4ccccc4)cc3)o2)cc1)[C@@H]1CCCN1C(=O)CN1C(=O)OC[C@@H]1c1ccccc1` [JR-20, (2S,2′S)-N,N′-(2,5-oxazolediyldi-4,1-phenylene)bis[1-[[(4S)-2-oxo-4-phenyl-3-oxazolidinyl]acetyl]-2-pyrrolidinecarboxamide]] was tested, and the pEC50 [2] was 5.00 to 6.00.

With `CC(O)(C(=O)N1C(C(=O)Nc2ccc(-c3cnc(-c4ccc(NC(=O)C5CC6CC6N5C(=O)C(C)(O)c5ccccc5)cc4)o3)cc2)CC2CC21)c1ccccc1` [CB-8, (1S,3S,5S,1′S,3′S,5′S)-N,N′-(1,3-oxazole-2,5-diyldi-4,1-phenylene)bis(2-((2S)-2-hydroxy-2-phenylpropanoyl)-2-azabicyclo[3.1.0]hexane-3-carboxamide)] the pEC50 [1] was > 8.34 and the pEC50 (read-out: EC50 1b) was > 8.30.

`O=C(Nc1ccc(-c2cc(-c3ccc(NC(=O)[C@@H]4CCCN4C(=O)C4CC4)cc3)[nH]n2)cc1)[C@@H]1CCCN1C(=O)C1CC1` [OL-35, (2S,2′S)-N,N′-(1H-pyrazole-3,5-diyldi-4,1-phenylene)bis(1-(cyclopropylcarbonyl)-2-pyrrolidinecarboxamide)] was tested, and the pEC50 [3] was 5.00 to 6.00 and the pEC50 [4] was 5.08.

For `CN(C)C(C(=O)N1CCC[C@H]1C(=O)Nc1ccc(-c2cnc(-c3ccc(NC(=O)[C@@H]4CCCN4C(=O)C(c4ccccc4F)N(C)C)cc3)o2)cc1)c1ccccc1F` (stereo partly drawn) [Example D-4, (2S,2′S)-N,N′-(2,5-oxazolediyldi-4,1-phenylene)bis[1-[(dimethylamino)(2-fluorophenyl)acetyl]-2-pyrrolidinecarboxamide]], the pEC50 [3] was > 8.34.

Compound `O=C(Nc1ccc(-c2n[nH]c(=O)n2-c2ccc(NC(=O)[C@@H]3CCCN3C(=O)OCc3ccccc3)cc2)cc1)[C@@H]1CCCN1C(=O)OCc1ccccc1` [OL-13, (2S,2′S)-2,2′-[(1,5-dihydro-5-oxo-4H-1,2,4-triazole-3,4-diyl)bis(4,1-phenyleneiminocarbonyl)]bis-1-pyrrolidinecarboxylic acid, bis(phenylmethyl) ester,] has a pEC50 [3] of 5.00 to 6.00.

`CC(=O)N1CCC[C@H]1C(=O)Nc1ccc(-c2cnc(-c3ccc(NC(=O)[C@@H]4C=CCN4C(=O)Cc4cccs4)cc3)o2)cc1` [Example D-1, (2S)-N-[4-[5-[4-[[[(2S)-1-acetyl-2-pyrrolidinyl]carbonyl]amino]phenyl]-2-oxazolyl]phenyl]-2,5-dihydro-1-(2-thienylacetyl)-1H-pyrrole-2-carboxamide] gave a pEC50 [3] of 5.00 to 6.00.

Work on `CC(C)(C)OC(=O)N1CCCC1C(=O)N1CCCC1C(=O)Nc1ccc(-c2cnc(-c3ccc(NC(=O)C4CCCN4C(=O)C4CCCN4C(=O)OC(C)(C)C)cc3)o2)cc1` [Example D-28, di-tert-butyl (2R,2′R)-2,2′-(1,3-oxazole-2,5-diylbis(4,1-phenylenecarbamoyl(2S)-2,1-pyrrolidinediylcarbonyl))di(1-pyrrolidinecarboxylate)] yielded a pEC50 [1] of 5.00 to 6.00.

`COc1cccc2c(C(=O)N3CCC[C@H]3C(=O)Nc3ccc(-c4cc(-c5ccc(NC(=O)[C@@H]6CCCN6C(=O)c6nc(Cl)cc7c(OC)cccc67)cc5)[nH]n4)cc3)nc(Cl)cc12` [OL-41, (2S,2′S)-N,N′-(1H-pyrazole-3,5-diyldi-4,1-phenylene)bis(1-((3-chloro-5-methoxy-1-isoquinolinyl)carbonyl)-2-pyrrolidinecarboxamide)] was tested, and the pEC50 [3] was 7.00 to 8.34.

In the case of `CN(C)C(Cn1cncn1)C(=O)N1CCC[C@H]1C(=O)Nc1ccc(-c2cnc(-c3ccc(NC(=O)[C@@H]4CCCN4C(=O)C(Cn4cncn4)N(C)C)cc3)o2)cc1` (stereo partly drawn) [JR-12, (2S)-N,N′-(4,4′-(oxazole-2,5-diyl)bis(4,1-phenylene))bis(1-(2-(dimethylamino)-3-(1H-1,2,4-triazol-1-yl)propanoyl)pyrrolidine-2-carboxamide)], the pEC50 (class symbols, read-out: EC50 Range against HCV 1b) was 6.00 to 7.00.

For `CN(C)[C@@H](C(=O)N1CCC[C@H]1C(=O)Nc1ccc(-c2ccc(-c3ccc(NC(=O)[C@@H]4CCCN4C(=O)[C@H](O)c4ccccc4)cc3)o2)cc1)c1ccccc1` [JG-66, (2S)-1-((2R)-2-(dimethylamino)-2-phenylacetyl)-N-(4-(5-(4-((((2S)-1-((2R)-2-hydroxy-2-phenylacetyl)-2-pyrrolidinyl)carbonyl)amino)phenyl)-2-furyl)phenyl)-2-pyrrolidinecarboxamide], the pEC50 [3] was > 8.34.

Compound `O=C(Nc1ccc(-c2cnc(-c3ccc(NC(=O)[C@@H]4CCCCN4C(=O)Cc4ccccc4)cc3)o2)cc1)[C@@H]1CCCCN1C(=O)Cc1ccccc1` [JG-6, (2S,2′S)-N,N′-(1,3-oxazole-2,5-diyldi-4,1-phenylene)bis(1-(phenylacetyl)-2-piperidinecarboxamide)] has a pEC50 [3] of 6.00 to 7.00.

Work on `O=C(Nc1ccc(-c2cnc(-c3ccc(NC(=O)[C@@H]4CCCN4C(=O)C4CCOC4)cc3)o2)cc1)[C@@H]1CCCN1C(=O)C1CCOC1` (stereo partly drawn) [XY-18, (2S,2′S)-N,N′-(1,3-oxazole-2,5-diyldi-4,1-phenylene)bis(1-(tetrahydro-3-furanylcarbonyl)-2-pyrrolidinecarboxamide)] yielded a pEC50 [2] of 7.00 to 8.34.

`CO[C@@H](C(=O)N1CCC[C@H]1C(=O)Nc1ccc(-c2cnc(-c3ccc(NC(=O)[C@@H]4CCCN4C(=O)[C@H](OC)c4ccccc4)cc3)o2)cc1)c1ccccc1` [XY-26, (2S,2′S)-N,N′-(1,3-oxazole-2,5-diyldi-4,1-phenylene)bis(1-((2R)-2-methoxy-2-phenylacetyl)-2-pyrrolidinecarboxamide)] was tested, and the pEC50 [2] was 5.00 to 6.00.

`COc1cccc2c(C(=O)N3CCC[C@H]3C(=O)Nc3ccc(-c4nc[nH]c4-c4ccc(NC(=O)[C@@H]5CCCN5C(=O)c5nc(Cl)cc6c(OC)cccc56)cc4)cc3)nc(Cl)cc12` [JG-50, (2S,2′S)-N,N′-(1H-imidazole-4,5-diyldi-4,1-phenylene)bis(1-((3-chloro-5-methoxy-1-isoquinolinyl)carbonyl)-2-pyrrolidinecarboxamide)] was tested, and the pEC50 [3] was 6.00 to 7.00.

`CCCC(C)(C)C(=O)N1CCC[C@H]1C(=O)Nc1ccc(-c2cnc(-c3ccc(NC(=O)[C@@H]4CCCN4C(=O)C(C)(C)CCC)cc3)o2)cc1` [XY-19, (2S,2′S)-N,N′-(1,3-oxazole-2,5-diyldi-4,1-phenylene)bis(1-(2,2-dimethylpentanoyl)-2-pyrrolidinecarboxamide)] was tested, and the pEC50 [2] was 5.00 to 6.00.

Compound `CC(=O)N1CCC[C@H]1C(=O)Nc1ccc(-c2nc(-c3ccc(NC(=O)[C@@H]4C=CCN4C(=O)c4cccs4)cc3)cs2)cc1` [Example D-47, (2S)-N-[4-[2-[4-[[[(2S)-1-acetyl-2-pyrrolidinyl]carbonyl]amino]phenyl]-4-thiazolyl]phenyl]-2,5-dihydro-1-(2-thienylcarbonyl)-1H-pyrrole-2-carboxamide] has a pEC50 [3] of 5.00 to 6.00.

In the case of `O=C(Nc1ccc(-c2nncn2-c2ccc(NC(=O)[C@@H]3C[C@@H](O)CN3C(=O)Cc3ccccc3)cc2)cc1)[C@@H]1C[C@@H](O)CN1C(=O)Cc1ccccc1` [OL-17, (2S,4R,2′S,4′R)-N,N′-(4H-1,2,4-triazole-3,4-diyldi-4,1-phenylene)bis[4-hydroxy-1-(phenylacetyl)-2-pyrrolidinecarboxamide]], the pEC50 [3] was 5.00 to 6.00.

`O=C(Nc1ccc(-c2cnc(-c3ccc(NC(=O)[C@@H]4CCCN4C(=O)c4cccnc4)cc3)o2)cc1)[C@@H]1CCCN1C(=O)c1cccnc1` [XY-4, (2S,2′S)-N,N′-(1,3-oxazole-2,5-diyldi-4,1-phenylene)bis(1-(3-pyridinylcarbonyl)-2-pyrrolidinecarboxamide)] was tested, and the pEC50 [2] was 6.00 to 7.00.
